Test results: patent US8785457B2 (Cellzome Limited, priority 2009, dated 2014)
pIC50: −log10 of the molar value.

Experiments:
[1] = target: T1, mTOR (Homo sapiens, UniProt P42345); experiment: mTOR kinobeads assay (competitive binding in Jurkat cell lysate, immunodetection); settings: kinobeads assay, Table 6; read-out: Inhibition values (IC50) mTOR
T1 construct: endogenous in cells; host or cells: Jurkat, clone E6-1 (ATCC TIB-152) cell lysate
Procedure, shortened: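 IC50 derived from dose-response curves of mTOR captured on immobilized phenylmorpholin-chromen beads, detected by antibody dot blot with infrared fluorescence.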

[2] = target: T2, PI3 Kgamma (PI3 Kg) (Homo sapiens, UniProt P48736); experiment: kinobeads assay, PI3Kgamma; type: binding; settings: kinobeads assay, Table 6; read-out: Inhibition values (IC50) PI3Kg
T2 construct: endogenous in cells; host or cells: cell lysate
T2 sequence (P48736 whole entry): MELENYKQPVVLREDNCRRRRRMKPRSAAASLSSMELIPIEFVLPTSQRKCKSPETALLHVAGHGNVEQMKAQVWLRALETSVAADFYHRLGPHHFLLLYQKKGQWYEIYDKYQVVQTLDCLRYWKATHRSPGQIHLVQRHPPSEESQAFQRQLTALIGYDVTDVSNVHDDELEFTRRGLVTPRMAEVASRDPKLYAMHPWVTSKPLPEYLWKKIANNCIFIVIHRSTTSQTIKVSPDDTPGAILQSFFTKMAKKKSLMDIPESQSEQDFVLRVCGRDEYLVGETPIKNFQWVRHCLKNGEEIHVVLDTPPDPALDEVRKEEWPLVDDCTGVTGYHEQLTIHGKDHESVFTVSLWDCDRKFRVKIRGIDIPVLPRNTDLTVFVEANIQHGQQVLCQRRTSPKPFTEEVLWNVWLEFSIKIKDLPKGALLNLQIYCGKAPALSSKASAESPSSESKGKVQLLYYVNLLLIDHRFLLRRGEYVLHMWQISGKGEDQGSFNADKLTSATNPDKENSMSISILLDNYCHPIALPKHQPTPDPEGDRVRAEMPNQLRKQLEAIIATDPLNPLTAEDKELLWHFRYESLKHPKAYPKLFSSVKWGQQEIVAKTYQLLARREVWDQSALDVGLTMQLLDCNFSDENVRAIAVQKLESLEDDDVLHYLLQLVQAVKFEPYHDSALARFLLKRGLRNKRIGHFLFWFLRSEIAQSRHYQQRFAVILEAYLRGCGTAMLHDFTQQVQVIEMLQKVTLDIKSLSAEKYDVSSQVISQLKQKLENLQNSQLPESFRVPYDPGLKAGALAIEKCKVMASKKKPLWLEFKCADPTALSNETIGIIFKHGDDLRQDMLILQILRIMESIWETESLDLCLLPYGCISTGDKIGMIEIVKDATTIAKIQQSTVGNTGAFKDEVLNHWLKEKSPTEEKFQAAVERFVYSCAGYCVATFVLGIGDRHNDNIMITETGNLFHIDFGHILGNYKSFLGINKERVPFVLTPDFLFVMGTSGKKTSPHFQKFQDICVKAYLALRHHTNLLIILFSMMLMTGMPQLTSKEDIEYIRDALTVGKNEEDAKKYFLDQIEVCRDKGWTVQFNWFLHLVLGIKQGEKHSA
Procedure, shortened: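 Test compounds at various concentrations were added to cell lysate together with beads carrying an immobilized phenylmorpholin-chromen ligand, competing for kinase binding. Captured proteins were separated, eluted and quantified by multiplexed immunodetection; IC50 values came from dose-response curves for each kinase.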

[3] = system: Akt serine-473 phosphorylation; experiment: In vitro Phospho-Akt cellular assay (pAkt S473) in HEK293T/17 cells; type: cell-based; settings: Homo sapiens, 2 hours
Procedure, shortened: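 HEK293T/17 cells were seeded at 40,000 (pS6RP) or 80,000 (pAkt) cells/well in DMEM with 2% FCS. They were exposed to 8 compound concentrations (0.1% DMSO) for 2 h at 37 °C and then lysed. Phosphoprotein was quantified by MesoScale electrochemiluminescence sandwich immunoassay, and the sigmoidal variable-slope dose-response was fitted.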

For `CCNC(=O)Nc1ccc(-c2nc3c(c(N4CCOC[C@@H]4C)n2)CCN(C)C3)c(F)c1` [Example 110, (S)-1-ethyl-3-(3-fluoro-4-(7-methyl-4-(3-methylmorpholino)-5,6,7,8-tetrahydropyrido[3,4-d]pyrimidin-2-yl)phenyl)urea], the pIC50 [1] was 6.00 to 7.00, the pIC50 [2] was less than 5.00 and the pIC50 [3] was 6.93.
In the case of `C[C@H]1COCCN1c1nc(-c2ccc(NC(=O)NC3CC3)cc2)nc2c1CCN(C(=O)C(C)(C)C)C2` [Example 64, (S)-1-cyclopropyl-3-(4-(4-(3-methylmorpholino)-7-pivaloyl-5,6,7,8-tetrahydropyrido[3,4-d]pyrimidin-2-yl)phenyl)urea], the pIC50 [1] was greater than 7.00, the pIC50 [2] was less than 5.00 and the pIC50 [3] was 7.77.
